Measured values as given in PubChem BioAssay (NCI).
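Dose response: 5 concentrations. Exposure: 48 h. Format: 96-well plates. Endpoint: linear interpolation; highest concentration if not reached. TGI denotes the concentration required for complete inhibition of growth.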

How the values were obtained:
Test in all cases: NCI tumour cell line growth inhibition, 48 h
[1] = tested on: SN12C renal
[2] = tested on: NCI-H226 lung
[3] = tested on: HT29 colon
[4] = tested on: IGROV1 ovarian
[5] = tested on: NCI-H522 lung
[6] = tested on: A498 renal
[7] = tested on: SK-MEL-5 melanoma
[8] = tested on: ACHN renal
[9] = tested on: OVCAR-4 ovarian
[10] = tested on: K-562 leukemia
[11] = tested on: NCI-H23 lung
[12] = tested on: MALME-3M melanoma
[13] = tested on: SNB-75 CNS
[14] = tested on: HOP-92 NSCLC
[15] = tested on: HL-60(TB) leukemia
[16] = tested on: MCF7 breast

Compound | TGI [1] [µM] | TGI [2] [µM] | TGI [3] [µM] | TGI [4] [µM] | TGI [5] [µM] | TGI [6] [µM] | TGI [7] [µM] | TGI [8] [µM] | TGI [9] [µM] | TGI [10] [µM] | TGI [11] [µM] | TGI [12] [µM] | TGI [13] [µM] | TGI [14] [µM] | TGI [15] [µM] | TGI [16] [µM]
Cc1ccc(NC(=O)CSc2nnc(Cc3ccccc3)o2)cc1 | > 100 | > 100 | > 100 | > 100 | > 100 | > 100 | > 100 | > 100 | > 100 | > 100 | > 100 | > 100 | > 100 |  |  | 
[N-]=[N+]=Nc1ccc2c(c1)Sc1ccccc1N2CCCCN1CCN(Cc2ccc(C(=O)c3ccc(CSCC(N)C(=O)O)cc3)cc2)CC1 (stereo not given) | > 100 | 35.6 | 30.7 | 30.9 | 33.7 | 37.7 | 34.9 | > 100 | > 100 | 44.9 | 74.2 |  |  | 38.2 | 30.8 | 54.4
CC1(C)OCN(c2ccc(S(N)(=O)=O)cc2)Cn2c1nc1ccccc12 | > 100 | > 100 | > 100 | > 100 | > 100 | > 100 |  | > 100 | > 100 | > 100 | > 100 | > 100 | > 100 | > 100 | > 100 | 
C#CCNC(=O)NCCCCC(NC(C)=O)C(=O)NCc1ccccc1 (stereo not given) | > 100 | > 100 | > 100 | > 100 | > 100 | > 100 | > 100 | > 100 | > 100 | > 100 | > 100 | > 100 | > 100 | > 100 |  | 
